Assays:
Digitaria sanguinalis [1] = experiment: Post-emergence herbicidal activity against Digitaria sanguinalis (hairy crabgrass) assessed as growth inhibition at 75 ai g/ha after 20 days by green house test; format: functional
Digitaria sanguinalis [2] = experiment: Pre-emergence herbicidal activity against Digitaria sanguinalis (hairy crabgrass) assessed as growth inhibition at 450 ai g/ha after 20 days by green house test; format: functional
Digitaria sanguinalis [3] = experiment: Pre-emergence herbicidal activity against Digitaria sanguinalis (hairy crabgrass) assessed as growth inhibition at 150 ai g/ha after 20 days by green house test; format: functional
Chenopodium album [4] = experiment: Post-emergence herbicidal activity against Chenopodium album assessed as growth inhibition at 450 ai g/ha after 20 days by green house test; format: functional
Chenopodium album [5] = experiment: Post-emergence herbicidal activity against Chenopodium album assessed as growth inhibition at 150 ai g/ha after 20 days by green house test; format: functional
Chenopodium album [6] = experiment: Pre-emergence herbicidal activity against Chenopodium album assessed as growth inhibition at 450 ai g/ha after 20 days by green house test; format: functional
Chenopodium album [7] = experiment: Pre-emergence herbicidal activity against Chenopodium album assessed as growth inhibition at 150 ai g/ha after 20 days by green house test; format: functional
Chenopodium album [8] = experiment: Pre-emergence herbicidal activity against Chenopodium album assessed as growth inhibition at 75 ai g/ha after 20 days by green house test; format: functional
Amaranthus spinosus [9] = experiment: Post-emergence herbicidal activity against Amaranthus spinosus assessed as growth inhibition at 75 ai g/ha after 20 days by green house test; format: functional
[10] = target: T1, Pyruvate dehydrogenase complex (Pisum sativum) (UniProt P52902+P52904); experiment: Inhibition of PDHc in Pisum sativum Zhongwan-2 (pea) shoot mitochondria assessed as decrease in rate of NADH formation using sodium pyruvate as substrate at 10 microg/g preincubated for 25 min before substrate addition measured after 1 min by spectrophotometric assay; format: protein-complex assay; conditions: Lathyrus oleraceus
[11] = target: T1, Pyruvate dehydrogenase complex (Pisum sativum); experiment: Inhibition of PDHc in Pisum sativum Zhongwan-2 (pea) shoot mitochondria assessed as decrease in rate of NADH formation using sodium pyruvate as substrate at 100 microg/g preincubated for 25 min before substrate addition measured after 1 min by spectrophotometric assay; format: protein-complex assay; conditions: Lathyrus oleraceus
[12] = target: T2, Pyruvate dehydrogenase complex (Pisum sativum, UniProt P52902+P52904); experiment: Inhibition of PDHc in Pisum sativum Zhongwan-2 (pea) shoot mitochondria assessed as decrease in rate of NADH formation using sodium pyruvate as substrate preincubated for 25 min before substrate addition measured after 1 min by spectrophotometric assay; format: protein-complex assay, Lathyrus oleraceus
T2 sequence (P52902 whole entry): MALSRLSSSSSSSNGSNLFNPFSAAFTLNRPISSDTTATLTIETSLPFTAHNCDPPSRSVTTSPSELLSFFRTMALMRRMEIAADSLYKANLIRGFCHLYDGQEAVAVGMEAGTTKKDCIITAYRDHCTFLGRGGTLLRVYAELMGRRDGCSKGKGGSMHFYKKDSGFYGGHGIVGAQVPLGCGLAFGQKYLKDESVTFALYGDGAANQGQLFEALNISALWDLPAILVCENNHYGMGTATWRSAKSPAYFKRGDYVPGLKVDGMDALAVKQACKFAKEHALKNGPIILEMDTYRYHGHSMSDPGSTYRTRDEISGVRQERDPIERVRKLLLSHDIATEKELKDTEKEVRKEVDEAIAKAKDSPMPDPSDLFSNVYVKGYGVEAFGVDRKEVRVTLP
T2 sequence (P52904 whole entry): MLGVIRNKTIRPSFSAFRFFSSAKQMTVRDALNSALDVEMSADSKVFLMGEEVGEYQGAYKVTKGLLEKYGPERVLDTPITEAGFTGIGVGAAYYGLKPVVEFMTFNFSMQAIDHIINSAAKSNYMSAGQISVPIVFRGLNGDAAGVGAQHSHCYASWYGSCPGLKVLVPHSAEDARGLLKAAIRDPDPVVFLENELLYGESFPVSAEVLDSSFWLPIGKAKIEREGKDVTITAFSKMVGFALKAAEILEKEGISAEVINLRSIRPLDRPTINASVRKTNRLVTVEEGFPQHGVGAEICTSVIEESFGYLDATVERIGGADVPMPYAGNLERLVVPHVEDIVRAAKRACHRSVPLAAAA

Abutilon theophrasti [13] = experiment: Post-emergence herbicidal activity against Abutilon theophrasti (velvetleaf) assessed as growth inhibition at 75 ai g/ha after 20 days by green house test; format: functional
Abutilon theophrasti [14] = experiment: Pre-emergence herbicidal activity against Abutilon theophrasti (velvetleaf) assessed as growth inhibition at 450 ai g/ha after 20 days by green house test; format: functional
Abutilon theophrasti [15] = experiment: Pre-emergence herbicidal activity against Abutilon theophrasti (velvetleaf) assessed as growth inhibition at 150 ai g/ha after 20 days by green house test; format: functional
Medicago sativa [16] = experiment: Post-emergence herbicidal activity against Medicago sativa (alfalfa) assessed as growth inhibition at 1500 ai g/ha after 20 days by green house test; format: functional
Amaranthus retroflexus [17] = experiment: Post-emergence herbicidal activity against Amaranthus retroflexus assessed as growth inhibition at 1500 ai g/ha after 20 days by green house test; format: functional
[18] = test system: Brassica rapa subsp. oleifera; experiment: Post-emergence herbicidal activity against Brassica rapa subsp. oleifera Si Yue Man assessed as growth inhibition at 1500 ai g/ha after 20 days by green house test; format: functional
Medicago sativa [19] = experiment: Pre-emergence herbicidal activity against Medicago sativa (alfalfa) assessed as growth inhibition at 1500 ai g/ha after 20 days by green house test; format: functional
Amaranthus retroflexus [20] = experiment: Pre-emergence herbicidal activity against Amaranthus retroflexus assessed as growth inhibition at 1500 ai g/ha after 20 days by green house test; format: functional
Digitaria sanguinalis [21] = experiment: Pre-emergence herbicidal activity against Digitaria sanguinalis (hairy crabgrass) assessed as growth inhibition at 1500 ai g/ha after 20 days by green house test; format: functional
Echinochloa crus-galli = experiment: Pre-emergence herbicidal activity against Echinochloa crus-galli (barnyard grass) assessed as growth inhibition at 1500 ai g/ha after 20 days by green house test; format: functional
Amaranthus spinosus [22] = experiment: Pre-emergence herbicidal activity against Amaranthus spinosus assessed as growth inhibition at 150 ai g/ha after 20 days by green house test; format: functional
[23] = Toxicity against Oryza sativa (rice) assessed as growth inhibition at 450 ai g/ha post-emergent application measured after 20 days by green house crop selectivity test; format: organism-based; conditions: in vivo, read-out: GI
Amaranthus retroflexus [24] = experiment: Post-emergence herbicidal activity against Amaranthus retroflexus assessed as growth inhibition at 450 ai g/ha after 20 days by green house test; format: functional
Abutilon theophrasti [25] = experiment: Post-emergence herbicidal activity against Abutilon theophrasti (velvetleaf) assessed as growth inhibition at 150 ai g/ha after 20 days by green house test; format: functional
Setaria viridis [26] = experiment: Post-emergence herbicidal activity against Setaria viridis (green foxtail) assessed as growth inhibition at 450 ai g/ha after 20 days by green house test; format: functional
Setaria viridis [27] = experiment: Post-emergence herbicidal activity against Setaria viridis (green foxtail) assessed as growth inhibition at 150 ai g/ha after 20 days by green house test; format: functional
Setaria viridis [28] = experiment: Post-emergence herbicidal activity against Setaria viridis (green foxtail) assessed as growth inhibition at 75 ai g/ha after 20 days by green house test; format: functional
Digitaria sanguinalis [29] = experiment: Post-emergence herbicidal activity against Digitaria sanguinalis (hairy crabgrass) assessed as growth inhibition at 450 ai g/ha after 20 days by green house test; format: functional

O=C(O)COc1ccc(Cl)cc1Cl [2,4-DICHLOROPHENOXYACETIC ACID]
growth inhibition (GI) (Digitaria sanguinalis [1]): 0%
growth inhibition (GI) (Digitaria sanguinalis [2]): 65%
growth inhibition (GI) (Digitaria sanguinalis [3]): 10%
growth inhibition (GI) (Chenopodium album [4]): 100%
growth inhibition (GI) (Chenopodium album [5]): 92.5%
growth inhibition (GI) (Chenopodium album [6]): 0%
growth inhibition (GI) (Chenopodium album [7]): 0%
growth inhibition (GI) (Chenopodium album [8]): 0%
growth inhibition (GI) (Amaranthus spinosus [9]): 60%
inhibition [10]: 18.5%
inhibition [11]: 27.8%
IC50 [12]: > 4530 µM
growth inhibition (GI) (Abutilon theophrasti [13]): 72.5%
growth inhibition (GI) (Abutilon theophrasti [14]): 0%
growth inhibition (GI) (Abutilon theophrasti [15]): 0%
growth inhibition (GI) (Medicago sativa [16]): 90%
growth inhibition (GI) (Amaranthus retroflexus [17]): 90%
growth inhibition (GI) [18]: 90%
growth inhibition (GI) (Medicago sativa [19]): 90%
growth inhibition (GI) (Amaranthus retroflexus [20]): 90%
growth inhibition (GI) (Digitaria sanguinalis [21]): 90%
growth inhibition (GI) (Echinochloa crus-galli): 75%
growth inhibition (GI) (Amaranthus spinosus [22]): 0%
inhibition at 480 h [23]: 37.5%
growth inhibition (GI) (Amaranthus retroflexus [24]): 100%
growth inhibition (GI) (Abutilon theophrasti [25]): 100%
growth inhibition (GI) (Setaria viridis [26]): 0%
growth inhibition (GI) (Setaria viridis [27]): 0%
growth inhibition (GI) (Setaria viridis [28]): 0%
growth inhibition (GI) (Digitaria sanguinalis [29]): 0%

COP(=O)(OC)C(C)OC(=O)COc1ccc(Cl)cc1Cl (stereo not given) [CLACYFOS]
growth inhibition (GI) (Digitaria sanguinalis [1]): 0%
growth inhibition (GI) (Digitaria sanguinalis [2]): 45%
growth inhibition (GI) (Digitaria sanguinalis [3]): 0%
growth inhibition (GI) (Chenopodium album [4]): 100%
growth inhibition (GI) (Chenopodium album [5]): 96%
growth inhibition (GI) (Chenopodium album [6]): 0%
growth inhibition (GI) (Chenopodium album [7]): 0%
growth inhibition (GI) (Chenopodium album [8]): 0%
growth inhibition (GI) (Amaranthus spinosus [9]): 90%
inhibition [10]: 50.8%
inhibition [11]: 59%
IC50 [12]: 18.2 µM
growth inhibition (GI) (Abutilon theophrasti [13]): 97.5%
growth inhibition (GI) (Abutilon theophrasti [14]): 0%
growth inhibition (GI) (Abutilon theophrasti [15]): 0%
growth inhibition (GI) (Medicago sativa [16]): 90%
growth inhibition (GI) (Amaranthus retroflexus [17]): 90%
growth inhibition (GI) [18]: 90%
growth inhibition (GI) (Medicago sativa [19]): 90%
growth inhibition (GI) (Amaranthus retroflexus [20]): 90%
growth inhibition (GI) (Digitaria sanguinalis [21]): 75%
growth inhibition (GI) (Echinochloa crus-galli): 75%
growth inhibition (GI) (Amaranthus spinosus [22]): 0%
inhibition at 480 h [23]: 0%
growth inhibition (GI) (Amaranthus retroflexus [24]): 100%
growth inhibition (GI) (Abutilon theophrasti [25]): 100%
growth inhibition (GI) (Setaria viridis [26]): 0%
growth inhibition (GI) (Setaria viridis [27]): 0%
growth inhibition (GI) (Setaria viridis [28]): 0%
growth inhibition (GI) (Digitaria sanguinalis [29]): 37.5%

COP(=O)(COC(=O)COc1cccc(C(F)(F)F)c1)OC
growth inhibition (GI) (Digitaria sanguinalis [1]): 0%
growth inhibition (GI) (Digitaria sanguinalis [2]): 35%
growth inhibition (GI) (Digitaria sanguinalis [3]): 0%
growth inhibition (GI) (Chenopodium album [4]): 82.5%
growth inhibition (GI) (Chenopodium album [5]): 42.5%
growth inhibition (GI) (Chenopodium album [6]): 0%
growth inhibition (GI) (Chenopodium album [7]): 0%
growth inhibition (GI) (Chenopodium album [8]): 0%
growth inhibition (GI) (Amaranthus spinosus [9]): 0%
inhibition [10]: 31.1%
inhibition [11]: 49.2%
IC50 [12]: 442 µM
growth inhibition (GI) (Abutilon theophrasti [13]): 27.5%
growth inhibition (GI) (Abutilon theophrasti [14]): 0%
growth inhibition (GI) (Abutilon theophrasti [15]): 0%
growth inhibition (GI) (Medicago sativa [16]): 90%
growth inhibition (GI) (Amaranthus retroflexus [17]): <=50%
growth inhibition (GI) [18]: 90%
growth inhibition (GI) (Medicago sativa [19]): 75%
growth inhibition (GI) (Amaranthus retroflexus [20]): 50%
growth inhibition (GI) (Digitaria sanguinalis [21]): 75%
growth inhibition (GI) (Echinochloa crus-galli): 50%
growth inhibition (GI) (Amaranthus spinosus [22]): 0%
inhibition at 480 h [23]: 32.5%
growth inhibition (GI) (Amaranthus retroflexus [24]): 57.5%
growth inhibition (GI) (Abutilon theophrasti [25]): 42.5%
growth inhibition (GI) (Setaria viridis [26]): 0%
growth inhibition (GI) (Setaria viridis [27]): 0%
growth inhibition (GI) (Setaria viridis [28]): 0%
growth inhibition (GI) (Digitaria sanguinalis [29]): 0%
